Reference: US9744250B2, “Chemical model of a neurodegenerative disease, method for preparation and uses of same” (priority 2012, dated 2017)

Tested on: α-synuclein
Assay: Cellular accumulation of α-synuclein (Western blot) in SH-SY5Y cells
Assay type: cell-based, human
Settings: 1 mM, 96 h incubation
Experimental: Cells were incubated under the same conditions as above with furosemide pyridinium (1 mM, incubation: 96 h) and MPP+ (1 mM, incubation: 6 h, wait 24 h). After incubation, the cells were trypsinized, rinsed with PBS, counted, then harvested in 100 μl of buffer containing: 250 mM sucrose; 70 mM KCl; 137 mm NaCl; 4.3 mm NaH2PO4; 1.4 mm KH2PO4, pH 7.2; and […] digitonin. Incubation at 4° C. was then conducted for 5 minutes before centrifuging at 13,000 g for 5 minutes to separate the cytosolic and lysosomal fraction from the mitochondrial fraction. Deposits of cytosolic fraction in the Western blot were adjusted according to the number of cells. The protein samples were diluted in 4× Laemmli and were then heated for 3 minutes at 95° C. to denature. They were loaded into the wells of gel. In addition to the samples, a molecular weight marker (Fermentas) was deposited in the gel. […] The transfer was carried out on PVDF membrane. The transfer was done in transfer buffer (25 mM Tris, 192 mM glycine, 10% methanol) overnight at 4° C. and 30V or for 2 hours at 4° C. and 80V. […] Then the membranes were immunolabeled for 1.5 h at room temperature with a primary antibody diluted in 1×PBS/0.2% Tween/3% milk. […] The primary antibody used was anti-α-synuclein, 1:500 (visualized with an anti-rabbit secondary antibody, 1:10,000).

With `NS(=O)(=O)c1cc(C(=O)[O-])c(-[n+]2cccc(O)c2)cc1Cl` [furosemide pyridinium, 4-chloro-2-(3-hydroxypyridinium-1-yl)-5-sulfamoylbenzoate] the “increase in the total amount of α-synuclein compared to control cells” value was 40%.
